Test results published in PubChem BioAssay AID1918937 (Molecular Pharmacology Branch, DTP, NCI, 2023).

System: 521955-158-R2-J5-PDC complex spheroid viability
Assay: Anticancer human tumor 521955-158-R2-J5-PDC patient-derived pancreatic carcinoma cell line growth inhibition
Conditions: for IC50: curve of first compound; for viability, T/C: stronger effect = lower value
Outline: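 Drug combinations with the LSD1 inhibitor iadademstat tested on tumor cells co-cultured as spheroids with endothelial cells and mesenchymal stem cells. Concentrations descended in half-log increments from clinical Cmax or 10 microM.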

[1] = second compound 0.1 µM, first compound 0.00949 µM
[2] = second compound 0.1 µM, first compound 0.03 µM
[3] = second compound 0.1 µM, first compound 0.0949 µM
[4] = second compound 0.1 µM, first compound 0.3 µM
[5] = second compound 0.1 µM, first compound 0.949 µM
[6] = second compound 0.1 µM, first compound 3 µM
[7] = second compound 0.316 µM, first compound 0.00949 µM
[8] = second compound 0.316 µM, first compound 0.03 µM
[9] = second compound 0.316 µM, first compound 0.0949 µM
[10] = second compound 0.316 µM, first compound 0.3 µM
[11] = second compound 0.316 µM, first compound 0.949 µM
[12] = second compound 0.316 µM, first compound 3 µM
[13] = second compound 1 µM, first compound 0.00949 µM
[14] = second compound 1 µM, first compound 0.03 µM
[15] = second compound 1 µM, first compound 0.0949 µM
[16] = second compound 1 µM, first compound 0.3 µM
[17] = second compound 1 µM, first compound 0.949 µM
[18] = second compound 1 µM, first compound 3 µM
[19] = second compound 3.16 µM, first compound 0.00949 µM
[20] = second compound 3.16 µM, first compound 0.03 µM
[21] = second compound 3.16 µM, first compound 0.0949 µM
[22] = second compound 3.16 µM, first compound 0.3 µM
[23] = second compound 3.16 µM, first compound 0.949 µM
[24] = second compound 3.16 µM, first compound 3 µM
[25] = second compound 10 µM, first compound 0.00949 µM
[26] = second compound 10 µM, first compound 0.03 µM
[27] = second compound 10 µM, first compound 0.0949 µM
[28] = second compound 10 µM, first compound 0.3 µM
[29] = second compound 10 µM, first compound 0.949 µM
[30] = second compound 10 µM, first compound 3 µM
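Also: spheroids exposed to agents for seven days.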
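For viability, T/C in this document: percent of DMSO vehicle control luminescence viability.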

Row | SMILES | IC50 (second compound 0.1 µM) | IC50 (second compound 0.316 µM) | IC50 (second compound 1 µM) | IC50 (second compound 3.16 µM) | IC50 (second compound 10 µM) | viability, T/C [1] | viability, T/C [2] | viability, T/C [3] | viability, T/C [4] | viability, T/C [5] | viability, T/C [6] | viability, T/C [7] | viability, T/C [8] | viability, T/C [9] | viability, T/C [10] | viability, T/C [11] | viability, T/C [12] | viability, T/C [13] | viability, T/C [14] | viability, T/C [15] | further results
1 | O=C(C=Cc1cccc(S(=O)(=O)Nc2ccccc2)c1)NO + NC1CC1c1ccc(-c2cccc(O)c2)cc1 | 459 nM | 438 nM | 446 nM | 347 nM | 356 nM | 103% | 113% | 82.4% | 62.8% | 30.1% | 0.42% | 94.1% | 102% | 91.1% | 61.8% | 23.8% | 0.53% | 97.7% | 107% | 87.8% | viability, T/C [16]: 65.8%; viability, T/C [17]: 22.1%; viability, T/C [18]: 1.1%; viability, T/C [19]: 112%; viability, T/C [20]: 101%; viability, T/C [21]: 89.1%; viability, T/C [22]: 55.5%; viability, T/C [23]: 17.1%; viability, T/C [24]: 0.23%; viability, T/C [25]: 112%; viability, T/C [26]: 112%; viability, T/C [27]: 83.7%; viability, T/C [28]: 61%; viability, T/C [29]: 14.7%; viability, T/C [30]: 0.31%
2 | NS(=O)(=O)OCC1CC(n2ccc3c(NC4CCc5ccccc54)ncnc32)CC1O (stereo not given) + NC1CCC(NC2CC2c2ccccc2)CC1 | 28.1 nM | 31.8 nM | 26.3 nM | 25.8 nM | 25.4 nM | 77.7% | 49% | 26.5% | 16.8% | 13.8% | 7.17% | 69.6% | 51.4% | 28.9% | 15.1% | 10.3% | 6.4% | 71.8% | 47.3% | 25.5% | viability, T/C [16]: 13.7%; viability, T/C [17]: 11.1%; viability, T/C [18]: 7.37%; viability, T/C [19]: 70.7%; viability, T/C [20]: 47.5%; viability, T/C [21]: 24.4%; viability, T/C [22]: 15.6%; viability, T/C [23]: 12.2%; viability, T/C [24]: 7.55%; viability, T/C [25]: 74.9%; viability, T/C [26]: 46.5%; viability, T/C [27]: 23.6%; viability, T/C [28]: 15.3%; viability, T/C [29]: 9.78%; viability, T/C [30]: 5.36%
